# From ChEMBL document CHEMBL3822386, “New sesquiterpene lactones, vernonilides A and B, from the seeds of Vernonia anthelmintica in Uyghur and their antiproliferative activities” (Bioorg Med Chem Lett, 2016)
# Key:
# Assay type in all cases: functional, cell-based
# A549 = test: Antiproliferative activity against human A549 cells assessed as reduction in cell viability after 72 hrs by WST-8 assay; details: A549, 72 h
# HeLa = test: Antiproliferation activity against human HeLa cells assessed as reduction in cell viability after 72 hrs by WST-8 assay
# MDA-MB-231 = test: Antiproliferation activity against human MDA-MB-231 cells assessed as reduction in cell viability after 72 hrs by WST-8 assay; details: MDA-MB-231, 72 h
IC50 (A549) [nM],IC50 (HeLa) [nM],IC50 (MDA-MB-231) [nM],Compound
700,400,350,C=C[C@]1(C)C[C@H](OC(=O)C(=C)CO)[C@H]2C(=C)C(=O)O[C@@H]2[C@H]1C(=C)C=O
1000,100,250,C=C(CO)C(=O)O[C@H]1CC(=C)[C@@H]2CC[C@@H](CO)[C@@H]2[C@H]2OC(=O)C(=C)[C@@H]21
21600,16300,9500,C=C[C@@]12COC(=O)C(=C)[C@@H]1[C@H]1OC(=O)C(=C)[C@@H]1[C@@H](OC(=O)C(=C)COCC)C2
400,200,300,C=C[C@@]12COC(=O)C(=C)[C@@H]1[C@H]1OC(=O)C(=C)[C@@H]1[C@@H](OC(=O)C(=C)CO)C2 [VERNODALIN]

# More lines, now with the values behind:
Compound,IC50 (A549) [nM],IC50 (HeLa) [nM],IC50 (MDA-MB-231) [nM]
C=C[C@]1(C)C[C@H](OC(=O)C(=C)COC(C)=O)[C@H]2C(=C)C(=O)O[C@@H]2[C@H]1C(=C)C=O,2950,4160,3200
C=C[C@@]12COC(=O)C(=C)[C@@H]1[C@H]1OC(=O)C(=C)[C@@H]1[C@@H](OC(=O)C(=C)COC(C)=O)C2,1520,2160,1350
C=C[C@@]12COC(=O)C(=C)[C@@H]1[C@H]1OC(=O)C(=C)[C@@H]1[C@@H](O)C2 [VERNOLEPIN],16900,2200,1900
